Values quoted from earlier work as cited in patent US12213962B2, “Drug resistant immunotherapy for treatment of a cancer” (Emory University, priority 2009, dated 2025).

System: AG104 sarcoma cells
Conditions: mice transplanted with non-modified, TMTX-sensitive cells

SMILES: COc1cc(NCc2ccc3nc(N)nc(N)c3c2C)cc(OC)c1OC [TMTX, trimetrexate]
- effect on efficacy of anti-CD137 antibody: reduced the efficacy
